From PMC6123649, “Structural basis for specific inhibition of the highly sensitive ShHTL7 receptor” (EMBO Reports, 2018)
Entries after “also recorded” stand apart in the source; their conditions may differ.

Legend:
ShHTL7‐L143Y = assay: YLG hydrolysis assay; assay type: biochemical, Striga hermonthica
Procedure: In vitro YLG hydrolysis assays were performed using 3 μM of ShHTL7, ShHTL7‐L143Y, AtD14, and OsD14 in a reaction buffer (1× PBS) with 0.1% dimethyl sulfoxide (DMSO) in a 100 μl volume on a 96‐well black plate (Greiner). The fluorescent intensity was measured by SpectraMax i3 (Molecular Devices) using an excitation wavelength of 480 nm and a detection wavelength of 520 nm. ShHTL7, ShHTL7‐L143Y, AtD14, and OsD14 were mixed with Triton X‐100, using serial dilutions to cover the Triton X‐100 concentration range from 5 μM until 4.87 nM. Protein‐Triton mixes were pre‐incubated for 30 min. 1 μM YLG (Tokyo Chemical Industry Co. Ltd.) was then added, and the assay was incubated for 60 min. The change in fluorescence observed over the course of 1 h incubation of YLG in buffer without protein was subtracted from the data collected in the presence of protein. The resulting relative fluorescence values were analyzed. The inhibitory curves and IC50 values were plotted using GraphPad (Prism 6) four‐parameter logistic curve. The rate of YLG hydrolysis by ShHTL7 was recorded following the above method at 10‐min interval for 2 h.

ShHTL7 L143Y mutant = assay: Intrinsic Triton fluorescence binding assay; parameters: species or system Striga hermonthica
Procedure: Triton X‐100 has an excitation and emission wavelength of 275 and 302 nm, respectively. ShHTL7, ShHTL7‐L143Y, AtD14, and OsD14 were incubated in 50 mM Tris–HCl pH 7.5, 150 mM NaCl, with or without 0.005% Tween‐20, at concentrations ranging from 10 μM to 1 nM (obtained using serial dilutions) with 154 nM of Triton X‐100 for 1–2 h, and fluorescence values were then measured by SpectraMax i3 (Molecular Devices) at excitation and detection wavelengths of 275 and 302 nm, respectively. […] Data were normalized to the background fluorescence from the protein to obtain the change in Triton X‐100 fluorescence intensity. To determine the K d, the changes in Triton X‐100 fluorescence intensity were plotted against the concentration of the protein using the single binding site model implemented in GraphPad (Prism 6).

[1] = system: GR24‐dependent interaction of ShHTL7 with ShMAX2; assay: GST pulldown of ShMAX2; assay type: biochemical, Striga hermonthica; conditions: pre‐incubation of ShHTL7 with Triton; 20 μM GR24
Procedure: (§1) Purified GST‐ShHTL7 wt, ShHTL7 L143Y, and ShHTL7‐H246N mutants were bound to the Glutathione Sepharose 4B Beads, where Triton is used in the lysis step and in certain samples Tween‐20 was used instead of Triton. Bound proteins were incubated with 20 μM GR24 and His6‐ShMAX2 lysate for 2 h and then washed with lysis buffer for three times and then ShHTL7 wt and mutants were eluted with the addition of 20 mM reduced glutathione. Thus, eluted protein was subjected to Western blot using antibody specific to 6XHis (anti‐His).

[2] = system: ShHTL7 L143Y binding to ShMAX2; assay: GST pulldown of ShMAX2; assay type: biochemical, Striga hermonthica
Procedure: as §1

ShHTL7 = molecular target: T1, ShHTL7 (Striga hermonthica, UniProt A0A0M3PNA2); assay: Differential static light scattering (DSLS), aggregation temperature; assay type: binding
T1 sequence (A0A0M3PNA2 1-271): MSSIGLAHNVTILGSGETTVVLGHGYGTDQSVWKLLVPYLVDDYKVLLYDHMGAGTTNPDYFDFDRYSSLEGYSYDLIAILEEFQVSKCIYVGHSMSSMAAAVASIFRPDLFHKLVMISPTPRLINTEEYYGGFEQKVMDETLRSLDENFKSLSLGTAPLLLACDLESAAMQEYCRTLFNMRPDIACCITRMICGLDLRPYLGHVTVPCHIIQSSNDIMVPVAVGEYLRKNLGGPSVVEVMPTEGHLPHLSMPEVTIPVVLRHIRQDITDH
Procedure: The specific aggregation temperature, T agg, at which ShHTL7, ShHTL7L143Y, AtD14, and OsD14 aggregated in the presence or absence of Triton X‐100, GR24, and PAA was measured using DSLS on the Stargazer system (Harbinger Biotechnology and Engineering Corporation, Markham, Canada). Protein samples at a concentration of 10 μM were overlaid with mineral oil in a clear bottom 384‐well black plate (Corning) and heated from 20 to 95°C at 1°C/min; light scattering was detected by a CCD camera every 0.5°C in the presence or absence of varying concentrations of Triton X‐100, GR24, and PAA yielding the difference in aggregation temperature at a particular concentration from apoproteins (ΔT agg). Data were normalized, and ΔT agg plotted against the Triton X‐100, GR24, and PAA concentration. Resulting data were plotted to determine the change in T agg of all proteins when bound to Triton X‐100, GR24, and PAA using GraphPad (Prism 6).

## Triton X-100
ShHTL7‐L143Y
  inhibition of hydrolysis activity of ShHTL7 L143Y: did not inhibit
ShHTL7 L143Y mutant
  binding to ShHTL7 L143Y mutant in vitro: failed to bind
[1]
  effect on GR24‐dependent interaction of ShHTL7 with ShMAX2: inhibited
[2]
  inhibition of ShMAX2 binding of ShHTL7 L143Y: did not inhibit
ShHTL7; 10 μM protein, varying compound concentrations
  effect on ShHTL7 aggregation temperature (T agg): increases; also recorded: stabilized
ShHTL7; pre‐incubation with Triton, then GR24
  effect of Triton pre‐incubation on GR24-induced T agg changes in ShHTL7: efficiently blocked
